Data published in ChEMBL document CHEMBL3603746, “Discovery of New H2S Releasing Phosphordithioates and 2,3-Dihydro-2-phenyl-2-sulfanylenebenzo[d][1,3,2]oxazaphospholes with Improved Antiproliferative Activity” (J Med Chem, 2015).
The source made the active and inactive calls. The rule behind the calls is not given here.

Key:
[1] = Induction of H2S release in 10% PBS:MeCN solution at 5 mM incubated at 22 degC in dark condition measured at 96 hrs by 2, 6-dansyl azide probed-based fluorescence assay relative to control; conditions: buffer, 5000 µM
[2] = Induction of H2S release in 10% PBS:MeCN solution at 5 mM incubated at 37 degC in dark condition measured at 96 hrs by 1 mM 2, 6-dansyl azide probed-based fluorescence assay relative to control; conditions: buffer, 5000 µM
[3] = Induction of H2S release in 10% PBS:MeCN solution assessed as ratio of H2S level at 37 degC to H2S level at 22 degC at 5 mM incubated in dark condition measured at 96 hrs by 2, 6-dansyl azide probed-based fluorescence assay; conditions: buffer, 5000 µM
[4] = Induction of H2S release in 10% PBS:MeCN solution at 5 mM incubated at 22 degC in dark condition measured at 96 hrs by 2, 6-dansyl azide probed-based fluorescence assay relative to GYY4137; format: physicochemical; conditions: buffer, 5000 µM
[5] = Induction of H2S release in 10% PBS:MeCN solution at 5 mM incubated at 37 degC in dark condition measured at 96 hrs by 2, 6-dansyl azide probed-based fluorescence assay relative to GYY4137; format: physicochemical; conditions: buffer, 5000 µM
MCF7 [6] = experiment: Cytotoxicity against human MCF7 cells assessed as inhibition of cell proliferation after 4 days by crystal violet assay; format: functional, cell-based; conditions: MCF7, 96 h
MCF7 [7] = experiment: cells; format: functional, cell-based; conditions: Homo sapiens, MCF7, 72 h
Description: Cytotoxicity against human MCF7 cells assessed as inhibition of cell proliferation after 72 hrs by MTT assay

SK-OV-3 = experiment: Cytotoxicity against human SKOV3 cells assessed as inhibition of cell proliferation after 4 days by crystal violet assay; format: functional, cell-based; conditions: SK-OV-3, 96 h
MDA-MB-231 = experiment: cells; format: functional, cell-based; conditions: Homo sapiens, MDA-MB-231, 72 h
Description: Cytotoxicity against human MDA-MB-231 cells assessed as inhibition of cell proliferation after 72 hrs by MTS assay

PC-3 = experiment: cells; format: functional, cell-based; conditions: Homo sapiens, PC-3, 72 h
Description: Cytotoxicity against human PC3 cells assessed as inhibition of cell proliferation after 72 hrs by MTT assay

[8] = Toxicity in human WI38 cells assessed as inhibition of cell proliferation after 4 days by crystal violet assay
[9] = Therapeutic index, ratio of IC50 for human WI38 cells to IC50 for human MCF7 cells; conditions: WI38 cells and MCF7 cells
[10] = Therapeutic index, ratio of IC50 for human WI38 cells to IC50 for human SKOV3 cells; conditions: WI38 cells and SKOV3 cells
[11] = Therapeutic index, ratio of IC50 for human WI38 cells to IC50 for human MBA-MD-231 cells; conditions: WI38 cells and MBA-MD-231 cells
[12] = Therapeutic index, ratio of IC50 for human WI38 cells to IC50 for human PC3 cells; conditions: WI38 cells and PC3 cells
[13] = Toxicity in transforming growth factor alpha transgenic mouse hepatocytes assessed as inhibition of cell proliferation after 24 hrs by CellTiter-Glo cell viability assay; format: cell-based, Hepatocyte
[14] = Toxicity in human AC10 cells assessed as inhibition of cell proliferation after 24 hrs by CellTiter-Glo cell viability assay; format: cell-based
Salmonella typhi [15] = experiment: Genotoxicity in Salmonella […] TA98 at 10 to 100 ug/plate after 48 hrs by Ames test in presence of S9 fraction; format: toxicity, organism-based; conditions: salmonella enterica subsp. enterica serovar […], s9, 48 h
Salmonella typhi [16] = experiment: Genotoxicity in Salmonella […] TA100 at 10 to 100 ug/plate after 48 hrs by Ames test in presence of S9 fraction; format: toxicity, organism-based; conditions: salmonella enterica subsp. enterica serovar […], s9, 48 h
Salmonella typhi [17] = experiment: Genotoxicity in Salmonella […] TA98 at 10 to 100 ug/plate after 48 hrs by Ames test in absence of S9 fraction; format: toxicity, organism-based; conditions: salmonella enterica subsp. enterica serovar […]
Salmonella typhi [18] = experiment: Genotoxicity in Salmonella […] TA100 at 10 to 100 ug/plate after 48 hrs by Ames test in absence of S9 fraction; format: toxicity, organism-based; conditions: salmonella enterica subsp. enterica serovar […]
[19] = Effective permeability of the compound at 500 uM after 6 hrs by PAMPA; conditions: PAMPA
[20] = Effective permeability of the compound at 500 uM after 16 hrs by PAMPA
MCF7 [21] = experiment: Reduction of intracellular pH in human MCF7 cells at 50 uM after 48 hrs by BCECF-AM staining-based confocal microscopic analysis; format: functional
MCF7 [22] = experiment: Induction of H2S release in human MCF7 cells at 200 uM measured at 6 hrs by probe 21-based fluorescence assay; format: functional
[23] = Induction of H2S release in aqueous acetonitrile solution at 200 uM measured over 4 days by probe 21-based fluorescence assay; conditions: buffer, 96 h
MCF7 [24] = experiment: Induction of H2S release in human MCF7 cells at 400 uM measured at 6 hrs by probe 21-based fluorescence assay; format: functional
MCF7 [25] = experiment: Induction of H2S release in human MCF7 cells at 200 uM measured at 24 hrs by probe 21-based fluorescence assay; format: functional
MCF7 [26] = experiment: Induction of H2S release in human MCF7 cells at 400 uM measured at 24 hrs by probe 21-based fluorescence assay; format: functional
[27] = Induction of H2S release in aqueous acetonitrile solution at 400 uM measured over 4 days by probe 21-based fluorescence assay; conditions: buffer, 96 h
MCF7 [28] = experiment: Induction of H2S release in human MCF7 cells at 400 uM after 5 hrs by probe 21-based confocal fluorescence microscopic analysis; format: functional, cell-based
physchem [29] = conditions: DMSO, pH 7.4
Description: Kinetic solubility of the compound in DMSO at pH 7.4 measured at 3 hrs by multiscreen filter paper-based UV absorbance analysis

physchem [30] = conditions: DMSO, pH 7.4; remark: listed apart in the source
Description: Kinetic solubility of the compound in DMSO at pH 7.4 measured at 24 hrs by multiscreen filter paper-based UV absorbance analysis

[31] = Induction of H2S release in 10% PBS:MeCN solution at 1 mM incubated at 22 degC in dark condition measured at 72 hrs by 2, 6-dansyl azide probed-based fluorescence assay; format: physicochemical; conditions: buffer, 1000 µM
[32] = Induction of H2S release in 10% PBS:MeCN solution at 100 uM incubated at 37 degC in dark condition measured at 72 hrs by 2, 6-dansyl azide probed-based fluorescence assay; format: physicochemical; conditions: buffer
MCF7 [33] = experiment: Antitumor activity against human MCF7 tumor spheroids assessed as tumor growth inhibition at 100 uM after 14 days by inverted microscopic analysis relative to control; format: functional; conditions: MCF7, 336 h, read-out: TGI
MCF7 [34] = experiment: Antitumor activity against human MCF7 tumor spheroids assessed as tumor growth inhibition at 200 uM after 14 days by inverted microscopic analysis relative to control; format: functional; conditions: MCF7, 336 h, read-out: TGI
MCF7 [35] = experiment: Antitumor activity against human MCF7 tumor spheroids assessed as tumor growth inhibition at 400 uM after 14 days by inverted microscopic analysis relative to control; format: functional; conditions: MCF7, 336 h, read-out: TGI
MCF7 [36] = experiment: Antitumor activity against human MCF7 tumor spheroids assessed as tumor growth inhibition at 800 uM after 14 days by inverted microscopic analysis relative to control; format: functional; conditions: MCF7, 336 h, read-out: TGI
[37] = Induction of H2S release in 10% PBS:MeCN solution at 5 mM incubated at 37 degC in dark condition measured at 96 hrs by 0.2 mM 2, 6-dansyl azide probed-based fluorescence assay relative to control; format: physicochemical; conditions: buffer, 5000 µM
[38] = Toxicity in human AC10 cells assessed as inhibition of cell proliferation at 100 uM after 24 hrs by CellTiter-Glo cell viability assay relative to control; format: cell-based
[39] = Induction of H2S release in 10% PBS:MeCN solution at 0.5 mM incubated at 22 degC in dark condition measured at 48 hrs by 2, 6-dansyl azide probed-based fluorescence assay relative to control; format: physicochemical; conditions: buffer, 500 µM
[40] = Induction of H2S release in 10% PBS:MeCN solution at 0.5 mM incubated at 37 degC in dark condition measured at 48 hrs by 1 mM 2, 6-dansyl azide probed-based fluorescence assay relative to control; format: physicochemical; conditions: buffer, 500 µM
[41] = Induction of H2S release in 10% PBS:MeCN solution assessed as ratio of H2S level at 37 degC to H2S level at 22 degC at 0.5 mM incubated in dark condition measured at 96 hrs by 2, 6-dansyl azide probed-based fluorescence assay; format: physicochemical; conditions: buffer, 500 µM
[42] = Induction of H2S release in 10% PBS:MeCN solution at 0.5 mM incubated at 22 degC in dark condition measured at 48 hrs by 2, 6-dansyl azide probed-based fluorescence assay relative to 12 uM of GYY4137; format: physicochemical; conditions: buffer, 500 µM
[43] = Induction of H2S release in 10% PBS:MeCN solution at 0.5 mM incubated at 37 degC in dark condition measured at 48 hrs by 2, 6-dansyl azide probed-based fluorescence assay relative to 6.9 uM of GYY4137; format: physicochemical; conditions: buffer, 500 µM

SMILES | %max [1] | Ratio [3] | fold change (FC) [4] | fold change (FC) [5] | IC50 (MCF7 [6]) | IC50 (MCF7 [7]) | IC50 (SK-OV-3) | IC50 (MDA-MB-231) | IC50 (PC-3) | IC50 at 4 days [8] | selectivity ratio [9] | selectivity ratio [10] | selectivity ratio [11] | selectivity ratio [12] | IC50 at 24 h [13] | IC50 at 24 h [14] | Papp at 6 h, 500 µM [19] | Papp at 16 h, 500 µM [20] | solubility kinetic at 3 h (physchem [29]) | solubility kinetic at 24 h (physchem [30]) | further results
NCc1ccccc1.S=P(S)(NCc1ccccc1)c1ccc(Oc2ccccc2)cc1 (centres undefined) | 1.28% | 2.2 | 0.9 | 0.5 | 36.3 µM | 67.6 µM | 47 µM | 55.4 µM | 45.6 µM | 104 µM | 1.5 | 1.5 | 1.5 | 1.5 | 23.5 µM | 62.6 µM | 0.19 ×10⁻⁶ cm/s | 0.97 ×10⁻⁶ cm/s | 200 µg/mL | 180 µg/mL | %max [2]: 2.81%; Activity (Salmonella typhi [15]): Non-toxic; Activity (Salmonella typhi [16]): Non-toxic; Activity (Salmonella typhi [17]): Non-toxic; Activity (Salmonella typhi [18]): Non-toxic; pH (MCF7 [21]): 6.75; Activity (MCF7 [22]): 41.5 µM; Activity [23]: 9.03 µM; Activity (MCF7 [24]): 48.2 µM; Activity (MCF7 [25]): 93.4 µM; Activity (MCF7 [26]): 74.6 µM; Activity [27]: 17.19 µM; Activity (MCF7 [28]): Active
S=P1(c2ccccc2)Nc2ccccc2O1 (centres undefined) | – | – | – | – | 5.7 µM | – | 6.12 µM | – | – | > 50 µM | – | 8.2 | – | – | 26.3 µM | 98 µM | – | – | – | – | Activity [31]: 150 µM; Activity [32]: 77.6 µM; inhibition of growth at 100 µM (MCF7 [33]): 69.7%; inhibition of growth at 200 µM (MCF7 [34]): 75.3%; inhibition of growth at 400 µM (MCF7 [35]): 83.7%; inhibition of growth at 800 µM (MCF7 [36]): 91%
C1COCCN1.CC(C)OP(=S)(S)c1ccc(Oc2ccccc2)cc1 (centres undefined) | 0.06% | 2.6 | < 0.1 | < 0.1 | 51.4 µM | 178 µM | 50.2 µM | 94.8 µM | 50.8 µM | 72.8 µM | 1.4 | 1.4 | 1.4 | 1.4 | – | – | 0.0066 ×10⁻⁶ cm/s | 0.0051 ×10⁻⁶ cm/s | > 400 µg/mL | > 400 µg/mL | %max [37]: 0.15%; inhibition at 24 h, 100 µM [38]: 28.6%
C1CSCCN1.S=P(S)(N1CCSCC1)N1CCSCC1 | – | – | – | – | 20.4 µM | – | 15.8 µM | – | – | 30.4 µM | 1.5 | 1.5 | 1.5 | 1.5 | 120 µM | – | – | – | – | – | %max [39]: 48.5%; %max [40]: 62.6%; Ratio [41]: 1.3; fold change (FC) [42]: 40; fold change (FC) [43]: 90.7; inhibition at 24 h, 100 µM [38]: 35.6%
